We go through 19 compounds from ChEMBL document CHEMBL1135144, “N-(pyrimidin-4-yl) and N-(pyridin-2-yl) phenylalanine derivatives as VLA-4 integrin antagonists” (Bioorg Med Chem Lett, 2002).

The nature of this series: Compound was evaluated for rate of clearance in IPRL (Isolated Perfused Rat Liver). The series is classed as ADME.

Take `CCCS(=O)(=O)c1nc(N[C@@H](Cc2ccc(NC(=O)c3c(Cl)cncc3Cl)cc2)C(=O)O)cc(OC)n1`: the k el is 0.00156 s⁻¹.

As to `CSc1ncc(C(=O)O)c(N[C@@H](Cc2ccc(NC(=O)c3c(Cl)cncc3Cl)cc2)C(=O)O)n1`, the k el is 0.000361 s⁻¹.

`O=C(Nc1ccc(C[C@H](Nc2cc(Oc3ccccc3)ncn2)C(=O)O)cc1)c1c(Cl)cncc1Cl` had a k el of 0.000861 s⁻¹.

On to `O=C(Nc1ccc(C[C@H](Nc2cc(S(=O)(=O)Cc3ccccc3)ncn2)C(=O)O)cc1)c1c(Cl)cncc1Cl`, for which the k el is 0.00144 s⁻¹.

In turn, `CCCS(=O)(=O)c1ccnc(NC(Cc2ccc(NC(=O)c3c(Cl)cncc3Cl)cc2)C(=O)O)c1` (centres undefined) had a k el of 0.00144 s⁻¹.

`CCCS(=O)(=O)c1nc(N[C@@H](Cc2ccc(NC(=O)c3c(Cl)cncc3Cl)cc2)C(=O)O)cc(C(=O)O)n1` gave a k el of 0.00025 s⁻¹.

`CCC[S+]([O-])c1cc(N[C@@H](Cc2ccc(NC(=O)c3c(Cl)cncc3Cl)cc2)C(=O)O)ncn1` (some centres undefined): the k el is 0.00119 s⁻¹.

As for `CCCS(=O)(=O)c1cc(N[C@@H](Cc2ccc(NC(=O)c3c(Cl)cncc3Cl)cc2)C(=O)O)ncn1`, the k el is 0.00122 s⁻¹.

In turn, `O=C(Nc1ccc(C[C@H](Nc2cc(Cc3ccccc3)ncn2)C(=O)O)cc1)c1c(Cl)cncc1Cl` showed a k el of 0.00178 s⁻¹.

Turning to `CCCS(=O)(=O)c1cc(NC(Cc2ccc(NC(=O)c3c(Cl)cncc3Cl)cc2)C(=O)O)ncc1C(=O)O` (centres undefined), the k el is 5.56e-05 s⁻¹.

With `CS(=O)(=O)c1cc(N[C@@H](Cc2ccc(NC(=O)c3c(Cl)cncc3Cl)cc2)C(=O)O)ncn1`, the k el was 0.00111 s⁻¹.

`COc1cc(N[C@@H](Cc2ccc(NC(=O)c3c(Cl)cncc3Cl)cc2)C(=O)O)nc(S(C)(=O)=O)n1` had a k el of 0.00136 s⁻¹.

In turn, `CCCS(=O)(=O)c1nc(C)cc(N[C@@H](Cc2ccc(NC(=O)c3c(Cl)cncc3Cl)cc2)C(=O)O)n1` showed a k el of 0.00181 s⁻¹.

For `CC(C)CS(=O)(=O)c1nc(N[C@@H](Cc2ccc(NC(=O)c3c(Cl)cncc3Cl)cc2)C(=O)O)cc(C(=O)O)n1`, the k el is 0.00164 s⁻¹.

Take `CCCS(=O)(=O)c1cc(NC(Cc2ccc(NC(=O)c3c(Cl)cncc3Cl)cc2)C(=O)O)ncc1Cl` (centres undefined): the k el is 0.000583 s⁻¹.

In turn, `CCCCCCS(=O)(=O)c1nc(N[C@@H](Cc2ccc(NC(=O)c3c(Cl)cncc3Cl)cc2)C(=O)O)cc(C(=O)O)n1` had a k el of 0.000861 s⁻¹.

For the compound `O=C(Nc1ccc(CC(Nc2ccc(Cl)cn2)C(=O)O)cc1)c1c(Cl)cncc1Cl` (centres undefined), the k el is 5.56e-05 s⁻¹.

For `CCCS(=O)(=O)c1nccc(N[C@@H](Cc2ccc(NC(=O)c3c(Cl)cncc3Cl)cc2)C(=O)O)n1`, the k el was 0.00122 s⁻¹.

Take `CCC[S+]([O-])c1cc(NC(Cc2ccc(NC(=O)c3c(Cl)cncc3Cl)cc2)C(=O)O)ncc1Cl` (centres undefined): the k el was 0.00128 s⁻¹.
